Patent publication US20250179031A1, “PROTEASOME ENHANCERS AND USES THEREOF” (Board of Trustees of Michigan State University, priority 2022, published 2025)

How the values were obtained:
Assay type in all cases: biochemical
[1] = test system: T1, human 20S proteasome; test: Fluorogenic peptide degradation 20S proteasome activity assay, combination of CT-L, T-L and Casp-L substrates; conditions: for Fold increase over vehicle (30 μM), enhancement of 20S activity: 30 μM compound, mixture of the three substrates, 15 min pre-treatment at 37° C., 1 h read
T1 construct: purchased Boston Biochem, Inc. (Cambridge, MA)
Description: (§1) Activity assays were carried out in a 100 μL reaction volume. Different concentrations (40-1.25 μM) of test compounds (1 μL) were added to a black flat/clear bottom 96-well plate containing 2 nM of human constitutive 20S proteasome ([…]), in 50 mM Tris-HCl at pH 7.8, 100 mM NaCl and allowed to incubate for 15 min at 37° C. Fluorogenic substrates (5 μL) were then added and the enzymatic activity measured at 37° C. on a SpectraMax M5e spectrometer by measuring the change in fluorescence unit per minute for 1 hour at 380-460 nm. The fluorescence units for the vehicle control were set at a 100%, and the ratio of drug-treated sample set to that of vehicle control was used to calculate the fold change in enzymatic activity. The fluorogenic substrates used were one of the following: Suc-LLVY-AMC (CT-L activity, 20 μM), Z-LLE-AMC (Casp-L activity, 20 μM), Boc-LRR-AMC (Trp-L activity, 40 μM) or a combination of the three substrates each at 6.67 μM. Results were analysed and plotted using GraphPad Prism 7.
(§2) Screening of this library of dihydroquinazolines was performed in two stages. In the first stage, each compound was screened at three concentrations (3, 10 and 30 μM) to select lead agents. Secondly, lead agents were further analyzed using full concentration responses (6-point titration ranging from 1.25 μM-40 μM) for each of the three proteolytic activities of the 20S proteasome and a combination thereof. The proteolytic activity of the 20S proteasome can be monitored in vitro by measuring the cleavage of fluorogenic peptide substrates for the different catalytic sites as an increase in 7-amino-4-methycoumarin (AMC) fluorescence overtime. A combination of chymotrypsin-like (CT-L, Suc-LLVY-AMC), tryptic-like (T-L, Boc-LRR-AMC) and caspase-like (Casp-L, Z-LLE-AMC) peptide substrates were used in equal amounts to screen compounds for overall 20S activity.
Pure human 20S proteasome was pre-treated with 3, 10 or 30 μM of one of the analogues or DMSO (vehicle control) for 15 min at 37° C. To each sample was then added a mixture of the three substrates (13.3 μM each). The release of AMC was monitored as fluorescence overtime for 1 h and the resulting 20S activity changes were determined by comparing to the untreated 20S and calculating the fold-increase in activity for each analogue at a given concentration (Table 1, 30 μM).
(§3) After analyzing the results in Table 1, three of the most promising analogues were selected for further studies into their 20S activity. Compounds 10, 2 and 18 were selected to be carried forward based on their fold increase and the highest Max-Fold activities. […] These compounds were then tested to obtain a full concentration—response (FIG. 1) of their activities towards the 20S proteasome using each of the three substrates for the three catalytic sites individually and the combination of the three substrates. This was done to ensure that each of the selected compounds activate the 20S proteasome at all three catalytic sites, which is critical for effective IDP degradation, as these proteins are likely to contain multiple cleavage sites for each.
(§4) Using the data in FIG. 1, the concentration at which 20S activity was doubled (AC200) was calculated for each compound using each substrate and the combination of the three substrates (Table 2).

[2] = test system: T2, human 20S proteasome, caspase-like (Casp-L) site; test: Fluorogenic peptide degradation 20S proteasome activity assay, Z-LLE-AMC (Casp-L activity); conditions: Z-LLE-AMC substrate
T2 construct: purchased Boston Biochem, Inc. (Cambridge, MA)
Description: as §1, §2, §3, §4

[3] = test system: T3, human 20S proteasome, chymotrypsin-like (CT-L) site; test: Fluorogenic peptide degradation 20S proteasome activity assay, Suc-LLVY-AMC (CT-L activity); conditions: Suc-LLVY-AMC substrate
T3 construct: purchased Boston Biochem, Inc. (Cambridge, MA)
Description: as §1, §2, §3, §4

[4] = test system: T4, human 20S proteasome, tryptic-like (T-L) site; test: Fluorogenic peptide degradation 20S proteasome activity assay, Boc-LRR-AMC (T-L activity); conditions: Boc-LRR-AMC substrate
T4 construct: purchased Boston Biochem, Inc. (Cambridge, MA)
Description: as §1, §2, §3, §4

[5] = test system: T5, human 20S proteasome (α-synuclein substrate); test: In vitro purified α-synuclein degradation assay (silver stain); conditions: pure human α-synuclein, 4 h at 37° C., silver stain quantified
T5 construct: purchased Boston Biochem, Inc. (Cambridge, MA)
Description: Representative silver stain of these alpha-synuclein digestions and quantification of three trials. 20S proteasome subunits were used as a loading control in the quantification (right). […] Error bars denote standard deviation. Ordinary one-way ANOVA statistical analysis was used to determine statistical significance (ns=not significant, *p<0.05, **p<0.01, […], and ****p<0.00001).
In vitro purified α-synuclein degradation assay. Digestion of α-synuclein was carried out in a 50 μL reaction volume made of 50 mM Tris and 100 mM NaCl at pH 7.8; 0.5 μM purified α-synuclein and 6.7 nM purified human 20S proteasome. Briefly, 20S proteasome was diluted to 7.58 nM in the reaction buffer. Test compounds or vehicle (1 μL of 50× stock or DMSO) were added to 44 μL of 7.58 nM 20S and incubated at 37° C. for 20 min. 5 μL of 5 μM α-synuclein substrate was then added to the reaction mixture and incubated at 37° C. for 4 hours. The reactions were quenched with concentrated sodium dodecyl sulfate (SDS) loading buffer. After boiling for 10 min, samples were resolved on a 4-20% Tris-glycine SDS-PAGE gel. The gels were then stained using a Pierce Silver Stain Kit (Thermo Scientific, Rockford IL) and the provided procedure. Silver stained gels were then quantified using ImageJ. […]

[6] = combination of the three substrates, 1.25-40 μM titration

COc1ccc2c(c1)N=C(c1ccccc1)N(c1cccc3cccnc13)C2c1ccccc1 (stereo not shown) [Compound 13, 7-Methoxy-2,4-diphenyl-3-(8-quinolyl)-3,4-dihydroquinazoline]
Fold increase over vehicle (30 μM), enhancement of 20S activity [1]: 5.3 fold

COc1ccc2c(c1)N=C(c1ccccc1)N(Cc1ccccn1)C2c1ccccc1 (stereo not shown) [Compound 14, 7-Methoxy-2,4-diphenyl-3-[(2-pyridyl)methyl]-3,4-dihydroquinazoline]
Fold increase over vehicle (30 μM), enhancement of 20S activity [1]: 2 fold

COc1ccc2c(c1)N=C(c1ccccc1)N(CCc1ccccn1)C2c1ccccc1 (stereo not shown) [Compound 15, 7-Methoxy-2,4-diphenyl-3-[2-(2-pyridyl)ethyl]-3,4-dihydroquinazoline]
Fold increase over vehicle (30 μM), enhancement of 20S activity [1]: 2.8 fold

COc1ccc2c(c1)N=C(c1ccccc1)N(C1CCCCC1)C2c1ccccc1 (stereo not shown) [Compound 16, 3-Cyclohexyl-7-methoxy-2,4-diphenyl-3,4-dihydroquinazoline]
Fold increase over vehicle (30 μM), enhancement of 20S activity [1]: 6.7 fold

COc1ccc2c(c1)N=C(c1ccccc1)N(C1CCN(C)CC1)C2c1ccccc1 (stereo not shown) [Compound 17, 7-Methoxy-3-(1-methyl-4-piperidyl)-2,4-diphenyl-3,4-dihydroquinazoline]
Max Fold, Casp-L [2]: 0.8 fold
Max Fold, CT-L [3]: 1.1 fold
Max Fold, T-L [4]: 1.0 fold
Fold increase over vehicle (30 μM), enhancement of 20S activity [1]: 1 fold
Max Fold, Combo [1, 6]: 1.4 fold
activity towards the 20S (in words) ([1]; screen of Table 1): no discemible activity towards the 20S

COc1ccc2c(c1)N=C(c1ccccc1)N(C1CCN(Cc3ccccc3)CC1)C2c1ccccc1 (stereo not shown) [Compound 18]
AC200, Casp-L [2]: 2.8 µM
Max Fold, Casp-L [2]: 10.6 fold
AC200, CT-L [3]: 10.5 µM
Max Fold, CT-L [3]: 3.8 fold
AC200, T-L [4]: 1.7 µM
Max Fold, T-L [4]: 8.7 fold
20S-mediated degradation of α-synuclein (in words) [5]: effectively enhanced the rate of degradation of α-synuclein by the 20S in vitro in a concentration dependent manner
Fold increase over vehicle (30 μM), enhancement of 20S activity [1]: 7 fold
concentration at which 20S activity was doubled in the combination (in words) ([1]; combination of the three substrates): low μM concentrations
AC200 (concentration at which 20S activity was doubled), Combo [1, 6]: 1.3 µM
Max Fold, Combo [1, 6]: 5.5 fold

COc1ccc2c(c1)N=C(c1ccccc1)N(CC1CCN(C)CC1)C2c1ccccc1 (stereo not shown) [Compound 19, 7-Methoxy-3-[(1-methyl-4-piperidyl)methyl]-2,4-diphenyl-3,4-dihydroquinazoline]
Fold increase over vehicle (30 μM), enhancement of 20S activity [1]: 1.2 fold

COc1ccc2c(c1)N=C(c1ccccc1)N(CC1CCOCC1)C2c1ccccc1 (stereo not shown) [Compound 20, 7-Methoxy-2,4-diphenyl-3-[(tetrahydro-2H-pyran-4-yl)methyl]-3,4-dihydroquinazoline]
Fold increase over vehicle (30 μM), enhancement of 20S activity [1]: 1.6 fold

COc1ccc2c(c1)N=C(c1ccccc1)N(CC1CCCCC1)C2c1ccccc1 (stereo not shown) [Compound 21, 3-(Cyclohexylmethyl)-7-methoxy-2,4-diphenyl-3,4-dihydroquinazoline]
Fold increase over vehicle (30 μM), enhancement of 20S activity [1]: 8.2 fold

COc1ccc2c(c1)N=C(c1ccccc1)N(CC#N)C2c1ccccc1 (stereo not shown) [Compound 22, (7-Methoxy-2,4-diphenyl-3,4-dihydroquinazolin-3-yl)acetonitrile]
Fold increase over vehicle (30 μM), enhancement of 20S activity [1]: 2.7 fold

C=CCN1C(c2ccccc2)=Nc2cc(OC)ccc2C1c1ccccc1 (stereo not shown) [Compound 23]
Fold increase over vehicle (30 μM), enhancement of 20S activity [1]: 2.3 fold

CCCCCCN1C(c2ccccc2)=Nc2cc(OC)ccc2C1c1ccccc1 (stereo not shown) [Compound 24]
Fold increase over vehicle (30 μM), enhancement of 20S activity [1]: 1.6 fold

CC(C)C[C@H](NC(=O)[C@H](Cc1ccccc1)NC(=O)c1cnccn1)B(O)O [bortezomib, reference compound]
20S-mediated degradation of α-synuclein (in words) [5]: prevented α-synuclein degradation
